Measurements from US20200339625A1, “NOVEL RADIOMETAL-BINDING COMPOUNDS FOR DIAGNOSIS OR TREATMENT OF PROSTATE SPECIFIC MEMBRANE ANTIGEN-EXPRESSING CANCER” (PROVINCIAL HEALTH SERVICES AUTHORITY, priority 2017, published 2020).
Values belong to the molecule of their own block, whether it stands above or below them.

Legend:
[1] = tested on: mice bearing PSMA-expressing LNCAP cancer xenografts; assay: Biodistribution of 68Ga-labeled compounds; format: in vivo
Protocol: (§1) Imaging and biodistribution experiments were performed using NODSCID 1L2RyKO male mice. Mice were anesthetized by inhalation with 2% isoflurane in oxygen, and implanted subcutaneously with 1×10^7 LNCaP cells behind left shoulder. Mice were imaged or used in biodistribution studies when the tumor grew up to reach 5-8 mm in diameter during 5-6 weeks.
For biodistribution studies, the mice were injected with the radiotracer as described above. At predetermined time points (1 or 3 h), the mice was anesthetized with 2% isoflurane inhalation, and euthanized by CO2 inhalation. Blood was withdrawn immediately from the heart, and the organs/tissues of interest were collected. The collected organs/tissues were weighed and counted using an automatic gamma counter. The uptake in each organ/tissue was normalized to the injected dose using a standard curve, and expressed as the percentage of the injected dose per gram of tissue (% ID/g).

[2] = tested on: mice bearing LNCaP tumor xenografts; assay: PET/CT imaging of 68Ga-labeled compounds; format: in vivo; conditions: PET/CT images
Protocol: 2.17 PET/CT Imaging and Biodistribution
as §1
PET imaging experiments were conducted using Siemens Inveon micro PET/CT scanner. Each tumor bearing mouse was injected 6-8 MBq of 68Ga-labeled tracer through the tail vein under anesthesia (2% isoflurane in oxygen). The mice were allowed to recover and roam freely in their cage. After 50 min, the mice were sedated again with 2% isoflurane in oxygen inhalation and positioned in the scanner. A 10-min CT scan was conducted first for localization and attenuation correction after segmentation for reconstructing the PET images. Then, a 10-min static PET imaging was performed to determined uptake in tumor and other organs. The mice were kept warm by a heating pad during acquisition. For imaging studies acquired at 3 h post-injection (p.i.), the mice were placed in the micro PET/CT scanner at 170 min p.i. Then, the CT acquisitions were conducted as described above, a 15-min static PET imaging was performed to determined uptake in tumor and other organs.

Adrenal glands uptake ([1]; 1 h post-injection): 2.19 ± 0.76 % ID/g
Blood uptake ([1]; 1 h post-injection): 1.37 ± 0.23 % ID/g
Bone uptake ([1]; 1 h post-injection): 0.15 ± 0.06 % ID/g
Brain uptake ([1]; 1 h post-injection): 0.03 ± 0.01 % ID/g
Fat uptake ([1]; 1 h post-injection): 0.61 ± 0.09 % ID/g
Heart uptake ([1]; 1 h post-injection): 0.40 ± 0.07 % ID/g
Intestine uptake ([1]; 1 h post-injection): 0.33 ± 0.07 % ID/g
Kidneys uptake ([1]; 1 h post-injection): 81.6 ± 12.6 % ID/g
Lacrimal uptake ([1]; 1 h post-injection): 0.08 ± 0.03 % ID/g
Liver uptake ([1]; 1 h post-injection): 0.39 ± 0.09 % ID/g
Lungs uptake ([1]; 1 h post-injection): 1.39 ± 0.27 % ID/g
Muscle uptake ([1]; 1 h post-injection): 0.33 ± 0.15 % ID/g
Pancreas uptake ([1]; 1 h post-injection): 0.47 ± 0.26 % ID/g
Salivary uptake ([1]; 1 h post-injection): 1.17 ± 0.27 % ID/g
Seminal uptake ([1]; 1 h post-injection): 0.81 ± 0.94 % ID/g
Spleen uptake ([1]; 1 h post-injection): 1.12 ± 0.19 % ID/g
Stomach uptake ([1]; 1 h post-injection): 0.10 ± 0.03 % ID/g
Tail uptake ([1]; 1 h post-injection): 0.84 ± 0.14 % ID/g
Testes uptake ([1]; 1 h post-injection): 0.42 ± 0.05 % ID/g
Thyroid uptake ([1]; 1 h post-injection): 0.58 ± 0.11 % ID/g
Tumor uptake ([1]; 1 h post-injection): 13.6 ± 2.16 % ID/g
Tumor:Blood ratio ([1]; 1 h post-injection): 10.1 ± 1.91
Tumor:Muscle ratio ([1]; 1 h post-injection): 49.2 ± 24.2
Tumor:kidney ratio ([1]; 1 h post-injection): 0.17 ± 0.02
Urine uptake ([1]; 1 h post-injection): 349 ± 209 % ID/g
Adrenal glands uptake ([1]; 3 h post-injection): 0.38 ± 0.06 % ID/g
Blood uptake ([1]; 3 h post-injection): 0.25 ± 0.04 % ID/g
Bone uptake ([1]; 3 h post-injection): 0.01 ± 0.01 % ID/g
Brain uptake ([1]; 3 h post-injection): 0.01 ± 0.00 % ID/g
Fat uptake ([1]; 3 h post-injection): 0.21 ± 0.01 % ID/g
Heart uptake ([1]; 3 h post-injection): 0.07 ± 0.02 % ID/g
Intestine uptake ([1]; 3 h post-injection): 0.19 ± 0.02 % ID/g
Kidneys uptake ([1]; 3 h post-injection): 22.3 ± 9.97 % ID/g
Lacrimal uptake ([1]; 3 h post-injection): 0.01 ± 0.01 % ID/g
Liver uptake ([1]; 3 h post-injection): 0.17 ± 0.02 % ID/g
Lungs uptake ([1]; 3 h post-injection): 0.28 ± 0.07 % ID/g
Muscle uptake ([1]; 3 h post-injection): 0.11 ± 0.11 % ID/g
Pancreas uptake ([1]; 3 h post-injection): 0.09 ± 0.03 % ID/g
Salivary uptake ([1]; 3 h post-injection): 0.20 ± 0.07 % ID/g
Seminal uptake ([1]; 3 h post-injection): 0.12 ± 0.08 % ID/g
Spleen uptake ([1]; 3 h post-injection): 0.24 ± 0.08 % ID/g
Stomach uptake ([1]; 3 h post-injection): 0.05 ± 0.01 % ID/g
Tail uptake ([1]; 3 h post-injection): 0.24 ± 0.14 % ID/g
Testes uptake ([1]; 3 h post-injection): 0.13 ± 0.08 % ID/g
Thyroid uptake ([1]; 3 h post-injection): 0.16 ± 0.09 % ID/g
Tumor uptake ([1]; 3 h post-injection): 14.5 ± 2.12 % ID/g
Tumor:Blood ratio ([1]; 3 h post-injection): 58.1 ± 12.6
Tumor:Muscle ratio ([1]; 3 h post-injection): 223 ± 122
Tumor:kidney ratio ([1]; 3 h post-injection): 1.12 ± 1.30
Urine uptake ([1]; 3 h post-injection): 191 ± 83.1 % ID/g
excretion pathway [2]: excreted mainly by the renal pathway
Structure (SMILES): O=C([O-])CN1CCN(CC(=O)[O-])CCN(CC(=O)NCCCC[C@H](NC(=O)CNC(=O)CCc2ccccc2)C(=O)NC[C@H]2CC[C@H](C(=O)N[C@@H](Cc3ccc4ccccc4c3)C(=O)NCCCC[C@H](NC(=O)N[C@@H](CCC(=O)O)C(=O)O)C(=O)O)CC2)CCN(CC(=O)[O-])CC1.[68Ga+3] [^68Ga-HTK03082]

Adrenal glands uptake ([1]; 1 h post-injection): 4.91 ± 1.57 % ID/g
Blood uptake ([1]; 1 h post-injection): 3.93 ± 0.91 % ID/g
Bone uptake ([1]; 1 h post-injection): 0.92 ± 0.14 % ID/g
Brain uptake ([1]; 1 h post-injection): 0.09 ± 0.02 % ID/g
Fat uptake ([1]; 1 h post-injection): 1.57 ± 0.42 % ID/g
Heart uptake ([1]; 1 h post-injection): 1.25 ± 0.27 % ID/g
Intestine uptake ([1]; 1 h post-injection): 0.77 ± 0.11 % ID/g
Kidneys uptake ([1]; 1 h post-injection): 198 ± 49.3 % ID/g
Lacrimal uptake ([1]; 1 h post-injection): 1.06 ± 0.49 % ID/g
Liver uptake ([1]; 1 h post-injection): 1.32 ± 0.63 % ID/g
Lungs uptake ([1]; 1 h post-injection): 3.59 ± 0.69 % ID/g
Muscle uptake ([1]; 1 h post-injection): 0.63 ± 0.10 % ID/g
Pancreas uptake ([1]; 1 h post-injection): 0.94 ± 0.18 % ID/g
Salivary uptake ([1]; 1 h post-injection): 3.27 ± 1.02 % ID/g
Seminal uptake ([1]; 1 h post-injection): 6.74 ± 10.7 % ID/g
Spleen uptake ([1]; 1 h post-injection): 7.08 ± 5.08 % ID/g
Stomach uptake ([1]; 1 h post-injection): 0.31 ± 0.08 % ID/g
Tail uptake ([1]; 1 h post-injection): 2.18 ± 0.65 % ID/g
Testes uptake ([1]; 1 h post-injection): 1.02 ± 0.13 % ID/g
Thyroid uptake ([1]; 1 h post-injection): 1.57 ± 0.32 % ID/g
Tumor uptake ([1]; 1 h post-injection): 13.9 ± 6.58 % ID/g
Tumor:Blood ratio ([1]; 1 h post-injection): 3.39 ± 1.01
Tumor:Muscle ratio ([1]; 1 h post-injection): 21.3 ± 7.50
Tumor:kidney ratio ([1]; 1 h post-injection): 0.07 ± 0.02
Urine uptake ([1]; 1 h post-injection): 175 ± 178 % ID/g
excretion pathway [2]: excreted mainly via the renal pathway
tumor uptake (qualitative comparison) ([2]; compounds of FIG. 13): comparable
Structure (SMILES): O=C([O-])CN1CCN(CC(=O)[O-])CCN(CC(=O)NCC2CCC(C(=O)NC(Cc3ccc4ccc5cccc6ccc3c4c56)C(=O)NCCCCC(NC(=O)NC(CCC(=O)O)C(=O)O)C(=O)O)CC2)CCN(CC(=O)[O-])CC1.[68Ga+3] (stereo not drawn) [^68Ga-HTK03029]
